Activity calls are given as the source filed them. The rule behind the calls is not given here.
Tests used:
Type in all cases: functional, cell-based
RKO [1] = assay: Antiproliferative activity against human RKO cells assessed as reduction in cell viability incubated for 24 hrs
RKO [2] = assay: Effect on metabolism in human RKO cells assessed as enhancement of oxidative phosphorylation at 2 mM measured after 24 hrs by seahorse analysis
RKO [3] = assay: Effect on energy metabolism in human RKO cells assessed as decrease in ATP production incubated for 24 hrs by luminescence based analysis
RKO [4] = assay: Effect on energy metabolism in human RKO cells assessed as decrease in AMP level incubated for 24 hrs by luminescence based analysis
RKO [5] = assay: Antiproliferative activity against human RKO cells assessed as inhibition of colony formation at 1 uM measured after 7 days by crystal violet staining based assay; conditions: time 7.0 day
RKO [6] = assay: Inhibition of cell migration of human RKO cells at 1 uM incubated for 48 hrs by wound healing assay
RKO [7] = assay: Effect on metabolism in human RKO cells assessed as activation of oxidative phosphorylation at 1 uM measured after 24 hrs by seahorse analysis

SMILES | IC50 (RKO [1]) [µM] | further results
O=Cc1c(-c2nc(NCCN3CCCC3)c3ccccc3n2)[nH]c2ccc(F)cc12 | 2.1 | 
CC(C)(C)OC(=O)NCCCNc1nc(-c2[nH]c3ccccc3c2C=O)nc2ccccc12 | 5.4 | 
CC(=O)c1c(-c2nc(NCCN3CCCCC3)c3ccccc3n2)[nH]c2ccccc12 | 9.5 | 
O=Cc1c(-c2nc(NCCO)c3ccccc3n2)[nH]c2ccccc12 | > 10 | 
COc1ccc2[nH]c(-c3nc(NCCCN(C)C)c4ccccc4n3)c(C=O)c2c1 | 8.1 | 
Cc1c(-c2nc(N(C)CCCN(C)C)c3ccccc3n2)[nH]c2ccccc12 | > 10 | 
CCC(=O)Nc1nc(-c2[nH]c3ccccc3c2C=O)nc2ccccc12 | > 10 | 
COC(=O)c1c(-c2nc(NCCN3CCCC3)c3ccccc3n2)[nH]c2ccccc12 | 6.1 | 
O=Cc1c(-c2nc(NC34CC5CC(CC(C5)C3)C4)c3ccccc3n2)[nH]c2ccccc12 | > 10 | 
COCCNc1nc(-c2[nH]c3ccccc3c2C=O)nc2ccccc12 | 4.1 | 
COc1ccc2[nH]c(-c3nc(NCCN4CCCC4)c4ccccc4n3)c(C=O)c2c1 | 1.6 | 
CN(C)CC(C)(C)CNc1nc(-c2[nH]c3ccccc3c2C=O)nc2ccccc12 | 5.3 | 
CN(C)CCCN(CCCN(C)C)c1nc(-c2[nH]c3ccccc3c2C=O)nc2ccccc12 | 1.8 | 
O=Cc1c(-c2nc(NC3CC3)c3ccccc3n2)[nH]c2ccccc12 | 3.9 | 
O=Cc1c(-c2nc(NC(C3CC3)C3CC3)c3ccccc3n2)[nH]c2ccccc12 | 6 | 
NC(=O)c1ncn([C@@H]2O[C@H](CO)[C@@H](O)[C@H]2O)c1N |  | Activity (RKO [2]): Active; Activity (RKO [3]): Active; Activity (RKO [4]): Active
COCCCNc1nc(-c2[nH]c3ccccc3c2C=O)nc2ccccc12 | 1.1 | 
CCCC(=O)Nc1nc(-c2[nH]c3ccccc3c2C=O)nc2ccccc12 | > 10 | 
Cc1c(-c2nc(NCCCN3CCN(C)CC3)c3ccccc3n2)[nH]c2ccccc12 | > 10 | 
O=Cc1c(-c2nc(NCCN3CCCC3)c3ccccc3n2)[nH]c2ccccc12 | 1.1 | 
CCN1CCC[C@H]1CNc1nc(-c2[nH]c3ccccc3c2C=O)nc2ccccc12 | 0.9 | inhibition (RKO [5]): Active; inhibition (RKO [6]): Active; Activity (RKO [7]): Active
O=Cc1c(-c2nc(NCCNC(=O)C3CC3)c3ccccc3n2)[nH]c2ccccc12 | 1.2 | 
CCCS(=O)(=O)Nc1nc(-c2[nH]c3ccccc3c2C=O)nc2ccccc12 | > 10 | 
O=Cc1c(-c2nc(NCC3CC3)c3ccccc3n2)[nH]c2ccccc12 | 4.8 | 
O=Cc1c(-c2nc(NCCCC(=O)N3CCCC3)c3ccccc3n2)[nH]c2ccccc12 | 8.7 | 
CN(C)CCNc1nc(-c2[nH]c3ccc(Cl)cc3c2C=O)nc2ccccc12 | 5.3 | 
CC(=O)c1c(-c2nc(NCCN(C)C)c3ccccc3n2)[nH]c2ccccc12 | > 10 | 

Reference: ChEMBL document CHEMBL5338807, “Design and Synthesis of Bouchardatine Derivatives as a Novel AMP-Activated Protein Kinase Activator for the Treatment of Colorectal Cancer” (J Med Chem, 2023)
